Measured values: patent US8658646B2, “Pyrrolopyrazine kinase inhibitors” (Hoffmann-LaRoche Inc., priority 2011, dated 2014)
Where “and” joins values, the source holds several entries; their conditions need not be identical. Equal values may be shown once.

How the values were obtained:
[1] = target: T1, recombinant human SYK360-635 (Homo sapiens, UniProt P43405); test: Determination of IC50 of Spleen Tyrosine Kinase (SYK) inhibition, 33P ATP filtration assay; assay type: biochemical; details: SYK aa 360-635 0.5 nM; ATP 20 μM, peptide 5 μM, 0.1% BSA; read-out: SYK_ENZYME_FILTRATION/v1, BSA
T1 construct: made in house

[2] = target: T2, JAK3: Recombinant human kinase domain (Homo sapiens, UniProt P52333); test: Determination of IC50 of Janus Kinase (JAK) inhibition, radioactive end-point 33P-ATP assay, JAK3; assay type: biochemical; details: ATP 1.5 uM, peptide 50 uM, 20 minutes, read-out: JAK3-INHIB-DR/v1~NO ADDITIVE~Enzyme_Conc = 100
T2 construct: JAK3: Recombinant human kinase domain from Millipore (Cat #14-629) or prepared; purchased Millipore 14-629
T2 sequence (P52333 822-1111 limits assumed): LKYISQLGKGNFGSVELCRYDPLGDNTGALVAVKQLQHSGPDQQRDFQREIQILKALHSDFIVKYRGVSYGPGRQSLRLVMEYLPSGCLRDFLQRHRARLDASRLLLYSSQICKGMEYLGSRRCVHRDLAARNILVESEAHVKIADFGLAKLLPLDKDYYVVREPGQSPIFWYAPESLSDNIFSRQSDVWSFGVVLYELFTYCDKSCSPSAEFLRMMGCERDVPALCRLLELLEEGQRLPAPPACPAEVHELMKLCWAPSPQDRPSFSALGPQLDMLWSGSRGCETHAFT

| SMILES | IC50 [1] | IC50 [2] |
| --- | --- | --- |
| Cn1nc(-c2cnc3[nH]cc(C(=O)N[C@@H]4CC[C@@H](C#N)C4)c3n2)c2ccc(Cl)cc21 [Example I-36, 2-(6-Chloro-1-methyl-1H-indazol-3-yl)-5H-pyrrolo[2,3-b]pyrazine-7-carboxylic acid ((1R,3R)-3-cyano-cyclopentyl)-amide] | 27.2 nM | 19 nM |
| Cn1nc(-c2cnc3[nH]cc(C(=O)NCC(C)(C)C)c3n2)c2ccc(F)cc21 [Example I-115, 2-(6-Fluoro-1-methyl-1H-indazol-3-yl)-5H-pyrrolo[2,3-b]pyrazine-7-carboxylic acid (2,2-dimethyl-propyl)-amide] | 19.3 nM | 8.23 nM |
| Cn1nc(-c2cnc3[nH]cc(C(=O)N[C@H]4CC[C@@H](O)C4)c3n2)c2ccc(F)cc21 (relative stereo) [Example I-46, 2-(6-Fluoro-1-methyl-1H-indazol-3-yl)-5H-pyrrolo[2,3-b]pyrazine-7-carboxylic acid (cis-3-hydroxy-cyclopentyl)-amide] | 10.3 nM | 2.86 nM |
| Cn1nc(-c2cnc3[nH]cc(C(=O)N[C@H]4CC[C@H](N)CC4)c3n2)c2ccc(Cl)cc21 [Example I-146, 2-(6-Chloro-1-methyl-1H-indazol-3-yl)-5H-pyrrolo[2,3-b]pyrazine-7-carboxylic acid (trans-4-amino-cyclohexyl)-amide] | 8.65 nM | 18.3 nM |
| CCc1ccc2c(-c3cnc4[nH]cc(C(=O)N[C@H](C)C(=O)N5CC(C#N)C5)c4n3)nn(C)c2c1 [Example I-87] | 158 nM | 1.78 nM |
| Cn1nc(-c2cnc3[nH]cc(C(=O)NC4CCS(=O)(=O)C4)c3n2)c2ccc(Cl)cc21 (centres unmarked) [Example I-113, 2-(6-Chloro-1-methyl-1H-indazol-3-yl)-5H-pyrrolo[2,3-b]pyrazine-7-carboxylic acid (1,1-dioxo-tetrahydro-1λ6-thiophen-3-yl)-amide] | 198 nM | 256 nM |
| Cn1nc(-c2cnc3[nH]cc(C(=O)N[C@@H]4CCC[C@H](C#N)C4)c3n2)c2ccc(Cl)cc21 (relative stereo) [Example I-167, 2-(6-Chloro-1-methyl-1H-indazol-3-yl)-5H-pyrrolo[2,3-b]pyrazine-7-carboxylic acid (cis-3-cyano-cyclohexyl)-amide] | 75 nM | 197 nM |
| C[C@@H](NC(=O)c1c[nH]c2ncc(-c3nn(C)c4cc(F)ccc34)nc12)c1cccc(OC(F)(F)F)c1 [Example I-254, 2-(6-Fluoro-1-methyl-1H-indazol-3-yl)-5H-pyrrolo[2,3-b]pyrazine-7-carboxylic acid [(R)-1-(3-trifluoromethoxy-phenyl)-ethyl]-amide] | 3230 nM | 18.6 nM |
| C[C@H](NC(=O)c1c[nH]c2ncc(-c3nn(C)c4cc(F)ccc34)nc12)c1cccc(OC(F)(F)F)c1 [Example I-253, 2-(6-Fluoro-1-methyl-1H-indazol-3-yl)-5H-pyrrolo[2,3-b]pyrazine-7-carboxylic acid [(S)-1-(3-trifluoromethoxy-phenyl)-ethyl]-amide] | 6370 nM | > 1000 nM |
| Cn1nc(-c2cnc3[nH]cc(C(=O)N[C@H]4CC[C@H](O)C4)c3n2)c2ccc(F)cc21 (relative stereo) [Example I-47, 2-(6-Fluoro-1-methyl-1H-indazol-3-yl)-5H-pyrrolo[2,3-b]pyrazine-7-carboxylic acid (trans-3-hydroxy-cyclopentyl)-amide] | 21.9 nM | 5.31 nM |
| CC(NC(=O)c1c[nH]c2ncc(-c3nn(C)c4cc(F)ccc34)nc12)C(O)C1CCOCC1 (single isomer, unassigned) [Example I-204, 2-(6-Fluoro-1-methyl-1H-indazol-3-yl)-5H-pyrrolo[2,3-b]pyrazine-7-carboxylic acid [trans-2-hydroxy-1-methyl-2-(tetrahydro-pyran-4-yl)-ethyl]-amide] | 205 nM | 217 nM |

More lines, now with the values ahead:

| IC50 [1] | IC50 [2] | SMILES |
| --- | --- | --- |
| 54.2 nM | 19.2 nM | C[C@@H](NC(=O)c1c[nH]c2ncc(-c3nn(C)c4cc(Cl)ccc34)nc12)c1ccccc1 [Example I-25, 2-(6-Chloro-1-methyl-1H-indazol-3-yl)-5H-pyrrolo[2,3-b]pyrazine-7-carboxylic acid ((R)-1-phenyl-ethyl)-amide] |
| 64.4 nM | 178 nM | CC(NC(=O)c1c[nH]c2ncc(-c3nn(C)c4cc(Cl)ccc34)nc12)c1nccn1C (centres unmarked) [Example I-199, 2-(6-Chloro-1-methyl-1H-indazol-3-yl)-5H-pyrrolo[2,3-b]pyrazine-7-carboxylic acid [1-(1-methyl-1H-imidazol-2-yl)-ethyl]-amide] |
| 37.3 nM | 19.4 nM | CC(NC(=O)c1c[nH]c2ncc(-c3nn(C)c4cc(Cl)ccc34)nc12)C(F)(F)F (centres unmarked) [Example I-160, 2-(6-Chloro-1-methyl-1H-indazol-3-yl)-5H-pyrrolo[2,3-b]pyrazine-7-carboxylic acid (2,2,2-trifluoro-1-methyl-ethyl)-amide] |
| < 1 nM (2×) and 1.6 nM | 63.7 nM | COc1ccc2c(-c3cnc4[nH]cc(C(=O)NC(C)(C)C)c4n3)nn(C)c2c1 [Example I-366, 2-(6-Methoxy-1-methyl-1H-indazol-3-yl)-5H-pyrrolo[2,3-b]pyrazine-7-carboxylic acid tert-butylamide] |
| 16 nM | 13.9 nM | C[C@@H](NC(=O)c1c[nH]c2ncc(-c3nn(C)c4cc(F)ccc34)nc12)C(C)(C)F [Example I-44, 2-(6-Fluoro-1-methyl-1H-indazol-3-yl)-5H-pyrrolo[2,3-b]pyrazine-7-carboxylic acid ((R)-2-fluoro-1,2-dimethyl-propyl)-amide] |
| 43.8 nM | 0.26 nM | COC[C@H](C)NC(=O)c1c[nH]c2ncc(-c3nn(C4COC4)c4cc(F)ccc34)nc12 [Example I-103, 2-(6-Fluoro-1-oxetan-3-yl-1H-indazol-3-yl)-5H-pyrrolo[2,3-b]pyrazine-7-carboxylic acid ((S)-2-methoxy-1-methyl-ethyl)-amide] |
| 7.57 nM | 10.5 nM | C[C@H](O)[C@H](C)NC(=O)c1c[nH]c2ncc(-c3nn(C)c4cc(Cl)ccc34)nc12 (relative stereo) [Example I-201, 2-(6-Chloro-1-methyl-1H-indazol-3-yl)-5H-pyrrolo[2,3-b]pyrazine-7-carboxylic acid (trans-2-hydroxy-1-methyl-propyl)-amide] |
| 482 nM | 67.3 nM | C[C@H](Cn1ccnc1)NC(=O)c1c[nH]c2ncc(-c3nn(C)c4cc(Cl)ccc34)nc12 [Example I-134, 2-(6-Chloro-1-methyl-1H-indazol-3-yl)-5H-pyrrolo[2,3-b]pyrazine-7-carboxylic acid ((R)-2-imidazol-1-yl-1-methyl-ethyl)-amide] |
| 416 nM | 189 nM | COC[C@H](C)NC(=O)c1c[nH]c2ncc(-n3cnc4cc(Cl)ccc43)nc12 [Example I-223, 2-(5-Chloro-benzoimidazol-1-yl)-5H-pyrrolo[2,3-b]pyrazine-7-carboxylic acid ((S)-2-methoxy-1-methyl-ethyl)-amide] |
| 12.5 nM | 60.9 nM | CC(C)NC(=O)c1c[nH]c2ncc(-c3nn(C)c4ccc(OC(F)(F)F)cc34)nc12 [Example I-281, 2-(1-Methyl-5-trifluoromethoxy-1H-indazol-3-yl)-5H-pyrrolo[2,3-b]pyrazine-7-carboxylic acid isopropylamide] |
| 284 nM | 82.4 nM | C[C@H](CN1CC[C@H](F)C1)NC(=O)c1c[nH]c2ncc(-c3nn(C)c4cc(Cl)ccc34)nc12 [Example I-122, 2-(6-Chloro-1-methyl-1H-indazol-3-yl)-5H-pyrrolo[2,3-b]pyrazine-7-carboxylic acid [(R)-2-((S)-3-fluoro-pyrrolidin-1-yl)-1-methyl-ethyl]-amide] |
| 31.9 nM | 27.4 nM | C[C@@H](NC(=O)c1c[nH]c2ncc(-c3nn(C)c4cc(F)ccc34)nc12)C1=NCCO1 [Example I-60, 2-(6-Fluoro-1-methyl-1H-indazol-3-yl)-5H-pyrrolo[2,3-b]pyrazine-7-carboxylic acid [(R)-1-(4,5-dihydro-oxazol-2-yl)-ethyl]-amide] |
| 186 nM | 13.3 nM | CC(C)NC(=O)c1c[nH]c2ncc(-c3nn(CCN(C)C)c4cc(Cl)cc(F)c34)nc12 [Example I-128, 2-[6-Chloro-1-(2-dimethylamino-ethyl)-4-fluoro-1H-indazol-3-yl]-5H-pyrrolo[2,3-b]pyrazine-7-carboxylic acid isopropylamide] |
| 54.9 nM | > 1000 nM and 536 nM | Cn1nc(-c2cnc3[nH]cc(C(=O)NCCN)c3n2)c2ccc(Cl)cc21 [Example I-143, 2-(6-Chloro-1-methyl-1H-indazol-3-yl)-5H-pyrrolo[2,3-b]pyrazine-7-carboxylic acid (2-amino-ethyl)-amide] |
| 140 nM | 0.795 nM | C[C@@H](COC(F)F)NC(=O)c1c[nH]c2ncc(-c3nn(C)c4cc(F)ccc34)nc12 [Example I-193, 2-(6-Fluoro-1-methyl-1H-indazol-3-yl)-5H-pyrrolo[2,3-b]pyrazine-7-carboxylic acid ((S)-2-difluoromethoxy-1-methyl-ethyl)-amide] |
| 35.3 nM | 31.4 nM | CC(C)NC(=O)c1c[nH]c2ncc(-c3nn(Cc4ccon4)c4cc(Cl)ccc34)nc12 [Example I-310, 2-(6-Chloro-1-isoxazol-3-ylmethyl-1H-indazol-3-yl)-5H-pyrrolo[2,3-b]pyrazine-7-carboxylic acid isopropylamide] |
| 8.5 nM | 4.59 nM | Cn1nc(-c2cnc3[nH]cc(C(=O)N[C@@H]4CCCOC4)c3n2)c2ccc(Cl)cc21 [Example I-139, 2-(6-Chloro-1-methyl-1H-indazol-3-yl)-5H-pyrrolo[2,3-b]pyrazine-7-carboxylic acid (R)-tetrahydro-pyran-3-ylamide] |
